{
  "source": "patent US7838542B2",
  "about": "“Bicyclic compositions and methods for modulating a kinase cascade” (Kinex Pharmaceuticals, LLC, priority 2006, dated 2010)",
  "key": {"Chinchillas [1]": {"system": "Chinchillas", "test": "Noise-induced hearing loss, round window application (Example 8)", "type": "in vivo, chinchilla", "design": "threshold shift, 0.5 kHz / threshold shift, 1 kHz / threshold shift, 2 kHz / threshold shift, 4 kHz / threshold shift, 8 kHz / average threshold shift, 0.5 kHz / average threshold shift, 1 kHz / average threshold shift, 2 kHz / average threshold shift, 4 kHz / average threshold shift, 8 kHz: unit not given here", "conditions": "for average threshold shift, 0.5 kHz / average threshold shift, 1 kHz / average threshold shift, 2 kHz / average threshold shift, 4 kHz / average threshold shift, 8 kHz: Table XIV; for threshold shift, 0.5 kHz / threshold shift, 1 kHz / threshold shift, 2 kHz / threshold shift, 4 kHz / threshold shift, 8 kHz: individual animals, listed as CH65", "experimental": "Chinchillas (N=8) were used in studies of noise-induced hearing loss. The animals' hearing sensitivity was measured using standard electrophysical techniques before the experimental manipulation. […] Animals were anesthetized, the auditory bullae were opened, and the left and right cochleas were visualized. The round window leading to the scala tympani of the cochlea was used as the access point for drug application. […] In each case, the solution was allowed to set on the round window for 30 minutes, then the auditory bullae were closed. Subsequently, the animals were exposed to 4 kHz band noise at 105 dB SPL for four hours. Following the noise exposure, the animals' hearing was tested at day 1, day 3, day 7, and day 20 to determine evoked potential threshold shifts. Permanent threshold shift was assessed at day 20. The cochleas were harvested at day 20 to allow for morphological examination of the cochleas."}, "Chinchillas [2]": {"system": "Chinchillas", "test": "Noise-induced hearing loss, round window application (Example 12)", "type": "in vivo, chinchilla", "conditions": "4 kHz band noise at 105 dB SPL, four hours, day 1, 7, 21", "experimental": "Chinchillas (N=6) were used in studies of noise-induced hearing loss. The animals' hearing sensitivity was measured using standard electrophysical techniques before the experimental manipulation. […] Animals were anesthetized, the auditory bullae were opened, and the left and right cochleas were visualized. The round window leading to the scala tympani of the cochlea was used as the access point for drug application. […] A control solution of 3 mM DMSO in […] of saline solution was placed on the round window of the other ear. The solution was allowed to set on the round window for 30 minutes, then the auditory bullae were closed. Subsequently, the animals were exposed to 4 kHz band noise at 105 dB SPL for four hours. Following the noise exposure, the animals' hearing was tested at day 1, day 7, and day 21 to determine evoked potential threshold shifts. Permanent threshold shift was assessed at day 21."}, "Guinea pigs": {"system": "Guinea pigs", "test": "Cisplatin-induced hearing loss", "type": "in vivo, guinea pig", "conditions": "subcutaneous, prior to cisplatin", "experimental": "The effects of high level noise and ototoxic drugs, such as cisplatin or the class of aminoglycosides, share several common features in the inner ear. First, the noise and/or drugs alter the free radical/antioxidant levels in the cochlea (inner ear). […] Guinea pigs (N=7) were used in studies of cisplatin-induced hearing loss. The animals' hearing sensitivity was measured using standard electrophysical techniques before the experimental manipulation. […] Animals were anesthetized and treated with cisplatin. Subsequently, the animals' hearing was tested to determine evoked potential threshold shifts.\nAnimals were treated subcutaneously with KX1-004 prior to the cisplatin-induced hearing loss."}, "pp60^c-src [3]": {"target": "T1, pp60^c-src (Homo sapiens, UniProt P12931)", "conditions": "literature value; read-out: IC50 (μM), Lit; cited from earlier work"}, "pp60^c-src [4]": {"target": "T1, pp60^c-src", "test": "Src inhibition (RR-SRC phosphorylation), Cellular Mimetic assay", "conditions": "inhibitor 100 μM; Table IX"}},
  "note": "Where “and” joins values, the source holds several entries; their conditions need not be identical. Equal entries are not always repeated.",
  "data": [
    {"compound": "O=C(NCc1cccc(O)c1)c1cc2cc(F)ccc2[nH]1", "note": "[KX1-004]", "values": [
      {"measurement": "average threshold shift, 0.5 kHz", "setting": "Chinchillas [1]; Day 1", "result": 3.75},
      {"measurement": "average threshold shift, 1 kHz", "setting": "Chinchillas [1]; Day 1", "result": 6.875},
      {"measurement": "average threshold shift, 2 kHz", "setting": "Chinchillas [1]; Day 1", "result": 25},
      {"measurement": "average threshold shift, 4 kHz", "setting": "Chinchillas [1]; Day 1", "result": 42},
      {"measurement": "average threshold shift, 8 kHz", "setting": "Chinchillas [1]; Day 1", "result": 22.5},
      {"measurement": "threshold shift, 0.5 kHz", "setting": "Chinchillas [1]; Day 1", "result": "0 (2×) and 5 and 10"},
      {"measurement": "threshold shift, 1 kHz", "setting": "Chinchillas [1]; Day 1", "result": "2.5 and 20 and 0 and 5"},
      {"measurement": "threshold shift, 2 kHz", "setting": "Chinchillas [1]; Day 1", "result": "0 and 25 and 20 and 55"},
      {"measurement": "threshold shift, 4 kHz", "setting": "Chinchillas [1]; Day 1", "result": "10 and 35 and 68 and 55"},
      {"measurement": "threshold shift, 8 kHz", "setting": "Chinchillas [1]; Day 1", "result": "0 and 30 and 35 and 25"},
      {"measurement": "average threshold shift, 0.5 kHz", "setting": "Chinchillas [1]; Day 3", "result": 5.4},
      {"measurement": "average threshold shift, 1 kHz", "setting": "Chinchillas [1]; Day 3", "result": 6.9},
      {"measurement": "average threshold shift, 2 kHz", "setting": "Chinchillas [1]; Day 3", "result": 18},
      {"measurement": "average threshold shift, 4 kHz", "setting": "Chinchillas [1]; Day 3", "result": 27},
      {"measurement": "average threshold shift, 8 kHz", "setting": "Chinchillas [1]; Day 3", "result": 15},
      {"measurement": "threshold shift, 0.5 kHz", "setting": "Chinchillas [1]; Day 3", "result": "5 (3×) and 0 and 12"},
      {"measurement": "threshold shift, 1 kHz", "setting": "Chinchillas [1]; Day 3", "result": "7.5 and 5 and 2 and 0 and 20"},
      {"measurement": "threshold shift, 2 kHz", "setting": "Chinchillas [1]; Day 3", "result": "0 (2×) and 15 and 40 and 35"},
      {"measurement": "threshold shift, 4 kHz", "setting": "Chinchillas [1]; Day 3", "result": "10 and 0 and 25 and 55 and 45"},
      {"measurement": "threshold shift, 8 kHz", "setting": "Chinchillas [1]; Day 3", "result": "0 (2×) and 15 (2×) and 45"},
      {"measurement": "average threshold shift, 0.5 kHz", "setting": "Chinchillas [1]; Day 7", "result": 8},
      {"measurement": "average threshold shift, 1 kHz", "setting": "Chinchillas [1]; Day 7", "result": 6},
      {"measurement": "average threshold shift, 2 kHz", "setting": "Chinchillas [1]; Day 7", "result": 15},
      {"measurement": "average threshold shift, 4 kHz", "setting": "Chinchillas [1]; Day 7", "result": 24},
      {"measurement": "average threshold shift, 8 kHz", "setting": "Chinchillas [1]; Day 7", "result": 18},
      {"measurement": "threshold shift, 0.5 kHz", "setting": "Chinchillas [1]; Day 7", "result": "0 and 5 and 8 and 15 and 12"},
      {"measurement": "threshold shift, 1 kHz", "setting": "Chinchillas [1]; Day 7", "result": "0 (3×) and 15 (2×)"},
      {"measurement": "threshold shift, 2 kHz", "setting": "Chinchillas [1]; Day 7", "result": "0 (2×) and 15 and 40 and 20"},
      {"measurement": "threshold shift, 4 kHz", "setting": "Chinchillas [1]; Day 7", "result": "0 and 5 and 15 and 55 and 45"},
      {"measurement": "threshold shift, 8 kHz", "setting": "Chinchillas [1]; Day 7", "result": "0 (2×) and 20 and 30 and 40"},
      {"measurement": "average threshold shift, 0.5 kHz", "setting": "Chinchillas [1]; Day 20", "result": 3},
      {"measurement": "average threshold shift, 1 kHz", "setting": "Chinchillas [1]; Day 20", "result": 1.25},
      {"measurement": "average threshold shift, 2 kHz", "setting": "Chinchillas [1]; Day 20", "result": 6.25},
      {"measurement": "average threshold shift, 4 kHz", "setting": "Chinchillas [1]; Day 20", "result": 9},
      {"measurement": "average threshold shift, 8 kHz", "setting": "Chinchillas [1]; Day 20", "result": 3.75},
      {"measurement": "threshold shift, 0.5 kHz", "setting": "Chinchillas [1]; Day 20", "result": "0 (2×) and 5 and 7"},
      {"measurement": "threshold shift, 1 kHz", "setting": "Chinchillas [1]; Day 20", "result": "0 (3×) and 5"},
      {"measurement": "threshold shift, 2 kHz", "setting": "Chinchillas [1]; Day 20", "result": "0 (2×) and 15 and 10"},
      {"measurement": "threshold shift, 4 kHz", "setting": "Chinchillas [1]; Day 20", "result": "0 (2×) and 11 and 25"},
      {"measurement": "threshold shift, 8 kHz", "setting": "Chinchillas [1]; Day 20", "result": "−5 and 5 and 0 and 15"},
      {"measurement": "average threshold shift, 0.5 kHz", "setting": "Chinchillas [1]; Pretest", "result": 26.6},
      {"measurement": "average threshold shift, 1 kHz", "setting": "Chinchillas [1]; Pretest", "result": 24.5},
      {"measurement": "average threshold shift, 2 kHz", "setting": "Chinchillas [1]; Pretest", "result": 20},
      {"measurement": "average threshold shift, 4 kHz", "setting": "Chinchillas [1]; Pretest", "result": 12.4},
      {"measurement": "average threshold shift, 8 kHz", "setting": "Chinchillas [1]; Pretest", "result": 4},
      {"measurement": "threshold shift, 0.5 kHz", "setting": "Chinchillas [1]; Pretest", "result": "30 and 35 and 25 and 20 and 23"},
      {"measurement": "threshold shift, 1 kHz", "setting": "Chinchillas [1]; Pretest", "result": "22.5 and 25 (4×)"},
      {"measurement": "threshold shift, 2 kHz", "setting": "Chinchillas [1]; Pretest", "result": "25 (3×) and 10 and 15"},
      {"measurement": "threshold shift, 4 kHz", "setting": "Chinchillas [1]; Pretest", "result": "20 and 10 and 12 and 5 and 15"},
      {"measurement": "threshold shift, 8 kHz", "setting": "Chinchillas [1]; Pretest", "result": "10 (2×) and 0 (3×)"},
      {"measurement": "protection against the noise exposure", "setting": "Chinchillas [1]; in vivo, listed as CH-65", "result": "provided protection against the noise exposure"},
      {"measurement": "average dB threshold shifts, treated ears versus control", "setting": "Chinchillas [2]", "result": "lower"},
      {"measurement": "protection against cisplatin-induced hearing loss", "setting": "Guinea pigs", "result": "protected against ciplatin-induced hearing loss"}
    ]},
    {"compound": "CCOc1cc(/C=C(\\C#N)C(N)=O)cc(CSc2ccccc2)c1O", "note": "[ST-638, reference compound]", "values": [
      {"measurement": "IC50", "setting": "pp60^c-src [3]", "result": 18, "unit": "µM"},
      {"measurement": "% Inhibition at 100 μM (std. dev.)", "setting": "pp60^c-src [4]", "result": "37 (+/−5) %"}
    ]}
  ]
}
